Assay results: patent US6664088B2, “Production of vanillin” (Plant Bioscience Limited, priority 1996, dated 2003)
Like-named read-outs stand apart in the source and are kept apart here.

What was measured:
[1] = biological target: T1, trans-feruloyl SCoA hydratase/aldol cleavage enzyme (Pseudomonas fluorescens, UniProt O69762); test: trans-feruloyl SCoA hydratase/aldol cleavage enzyme activity, reaction products by HPLC; type: biochemical; conditions: 30° C., 0.4 mM substrate, 2.8 μg enzyme partially purified by Mono-Q and Mono-P
T1 construct: Purification from cells of Ps. fluorescens biovar V, strain AN103, was; endogenous in cells; host or cells: Ps. fluorescens biovar; V strain AN103 grown on trans-ferulate (crude extract, then Mono Q, Mono P, PhenylSuperose); also crude extract of E. coli JM109(DE3) with the gene in pSP72
Experimental: At each stage of purification, active fractions were detected by a micro-adaptation of the assay with HMPHP SCoA described above (Example 2); reactions were performed in 100 μl of reaction mixture for ca. 4 min at room temperature in microtitre wells and absorbance was then measured in an MR 5000 microtitre plate reader (Dynatech, Guernsey, Channel Islands), equipped with a 340 nm filter. The activity of the pooled fractions was measured using HPLC to determine the reaction products of both HMPHP SCoA, (0.4 mM) and trans-feruloyl SCoA (0.28 mM) as substrates. […] The proportionality of the reactions with time and with quantity of enzyme was established in preliminary determinations.
E. coli cells were grown at 37° C. for 3 h in 50 ml of L medium, containing ampicillin (50 μg/ml) with and without induction by IPTG. Extracts were prepared as described above in Example 2 for Ps. fluorescens AN103, but without centrifugation. The crude extract was used for assay. Enzyme activity with both HMPHP SCoA and trans-feruloyl ScoA was determined as described above in Example 4 using HPLC to determine the reaction products. […] There was no activity with either trans-feruloyl SCoA or HMPHP SCoA in extracts of an unmanipulated E. coli strain, whether induced or not. In the manipulated strain E. coli 1039 that expresses the Pseudomonas gene the specific activity was slightly lower in the exLract made following induction than in that made from uninduced bacteria. […] It was not possible to detect expression of the 31 kD protein visually on Coomassie-stained, one-dimensional SDS gels because of its co-migration with the strongly expressed β-lactamase encoded by the vector ampicillin resistance marker.

[2] = test system: enzyme activities I, II and III from Ps. fluorescens biovar V, strain AN103; test: Use of cinnamates as substrates by enzyme activities I, II and III; type: biochemical, Pseudomonas fluorescens; conditions: AN103 enzymes
[3] = test system: Ps. fluorescens biovar. V, strain AN103; test: Relative growth of strain AN103 on a range of carbon substrates (absorbance at 600 nm); type: cell-based, Pseudomonas fluorescens; conditions: for activity at 10000 µM: read-out: Relative Growth (%)
Experimental: KH2PO4, 5 g; […] FeSO4, 0.5 mg; CaCl2, 0.5 mg; MnCl2.5H2O, 5 mg; (NH4)6Mo2O7.4H2O, 1.1 mg; MgSO4, 5 mg; EDTA, 50 mg; […] The pH was 7.0. Carbon sources were included as indicated. […] Growth was monitored by measuring absorbance at 550 or 600 nm. [table]

[4] = test system: cell-free extract of strain AN103; test: Incubation of CoASH thioesters with cell-free extract; type: biochemical, Pseudomonas fluorescens
Experimental: (§1) Cell-free extracts were routinely incubated at 30° C. and pH 7.5 in a reaction mixture (1 ml) containing 90 mM Tris HCl buffer and 2.5 mM MgCl2, together with (as appropriate) 0.5 mM trans-ferulic acid, 0.2 mM CoASH (Li salt) and 2.5 mM ATP. This complete reaction mixture constituted an assay for trans-ferulate: CoASH ligase, where the initial increase in absorbance at 345 nm was monitored against a blank reaction mixture from which CoASH was omitted. Incubations with HMPHP SCoA (generally 0.4 mM) were performed similarly, but with the omission of trans-ferulic acid, CoASH and ATP.
Metabolites of trans-ferulic acid, including the CoASH thioesters, were analysed and quantitated by HPLC using a Lichrosorb RP-18 column (20 cm×4.6 mm; Capital HPLC, Broxburn, West Lothian, UK) with a multiphasic gradient; solvent “A” was 20 mM NaOAc, adjusted to pH 6.0 and solvent“B” was MeOH; the flow rate was 1.2 ml/min; the proportion of solvent “B” rose linearly from 0% at 0 min to 10% at 15 min and thence to 50% at 40 min and 70% at 45 min, finally decreasing to 0% at 50 min. Detection was with a Spectra Focus detector (Thermo Separation Products, Stone, Staffs. UK), which permitted u/v spectral analysis of each eluting component.

[5] = biological target: T2, Vanillin: NAD+ oxidoreductase (Pseudomonas fluorescens, UniProt O69763); test: Vanillin:NAD+ oxidoreductase assay, decrease in absorbance at 340 nm; type: biochemical; conditions: gene expressed in E. coli strain DH5 from pUC18
T2 construct: endogenous in cells; host or cells: Ps. fluorescens AN103 / van 1 / van 10 cell-free extracts; also E. coli DH5 carrying pUC18 with the full-length ORF
Experimental: Vanillin: NAD^+ oxidoreductase was assayed at 30° C. and pH 7.0 by monitoring the initial decrease in absorbance at 340 nm against a blank cuvette from which NAD^+ was omitted. Because of the similarity in extinction coefficient at 340 nm for vanillin and for NADH, the sensitivity of the assay was increased by catalysing the regeneration of NADH to NAD^+ by providing lactate dehydrogenase and pyruvate. Reaction mixtures contained, in 1 ml volume, 75 mM KPi buffer, pH 7.0, 0.125 mM vanillin, 1.2 mM Na pyruvate, lactate dehydrogenase (rabbit muscle), 1.1 U and NAD^+, 0.5 mM.
In order to confirm the function of this gene, expression was determined in E. coli strain DH5, which contained the vector pUC18 into which the full-length open reading frame had been inserted such that expression was from the lac promoter on the vector. Vanillin: NAD^+ oxidoreductase activity was confirmed and was absent from a control strain bearing the unmodified pUC 18 vector. Using the enzyme assay described in Example 2, activity with vanillin as substrate was determined as 3.0 nkat/mg of protein; activity with salicylaldehyde was 2.8 nkat/mg.

[6] = test system: trans-ferulate: CoASH ligase; test: trans-ferulate:CoASH ligase assay, initial increase in absorbance at 345 nm; type: biochemical, Pseudomonas fluorescens; conditions: crude extracts of Ps. fluorescens AN103; initial rate at absorbance maximum of the SCoA thioester
Experimental: as §1

[7] = substrate 10 mM on MM Medium, 48 h at 25° C., absorbance at 600 nm
[8] = Pseudomonas fluorescens, substrate 10 mM on MM Medium, 48 h at 25° C., absorbance at 600 nm

T1 sequence (O69762 2-276): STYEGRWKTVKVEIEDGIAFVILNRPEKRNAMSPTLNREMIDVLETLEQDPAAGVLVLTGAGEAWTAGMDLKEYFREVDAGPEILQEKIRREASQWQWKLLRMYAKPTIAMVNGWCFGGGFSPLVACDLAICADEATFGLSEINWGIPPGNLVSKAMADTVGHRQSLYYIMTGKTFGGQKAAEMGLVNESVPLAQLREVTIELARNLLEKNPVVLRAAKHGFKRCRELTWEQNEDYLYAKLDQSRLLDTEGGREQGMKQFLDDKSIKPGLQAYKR
T2 sequence (O69763 whole entry): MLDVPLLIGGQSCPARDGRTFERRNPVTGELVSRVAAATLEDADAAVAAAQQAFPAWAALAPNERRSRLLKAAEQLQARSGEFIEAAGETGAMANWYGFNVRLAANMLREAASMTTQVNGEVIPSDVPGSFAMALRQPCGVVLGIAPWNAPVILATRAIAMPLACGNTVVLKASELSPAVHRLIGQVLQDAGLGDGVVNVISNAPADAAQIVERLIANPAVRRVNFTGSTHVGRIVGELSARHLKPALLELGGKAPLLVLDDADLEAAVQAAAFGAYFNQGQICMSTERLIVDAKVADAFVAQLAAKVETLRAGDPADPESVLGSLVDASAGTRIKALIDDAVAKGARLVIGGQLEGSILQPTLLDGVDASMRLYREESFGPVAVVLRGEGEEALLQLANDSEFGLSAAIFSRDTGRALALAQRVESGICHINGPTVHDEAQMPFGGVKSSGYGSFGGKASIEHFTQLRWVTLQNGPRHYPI

`CC(C)(COP(=O)(O)OP(=O)(O)OC[C@H]1O[C@@H](n2cnc3c(N)ncnc32)[C@H](O)[C@@H]1OP(=O)(O)O)[C@@H](O)C(=O)NCCC(=O)NCCSC(=O)/C=C/c1ccc(O)c(O)c1` (relative stereo) [Caffeoyl SCoA, trans-caffeoyl SCoA] was tested, and the “Activity, utilisation of trans-p-hydroxycinnamoyl SCoA thioester” value [1] was 0.36 nkat/mg of protein.

For `COc1cc(C=CC(=O)SCCNC(=O)CCNC(=O)[C@H](O)C(C)(C)COP(=O)(O)OP(=O)(O)OC[C@H]2O[C@@H](n3cnc4c(N)ncnc43)[C@H](O)[C@@H]2OP(=O)(O)O)ccc1O` (relative stereo) [Feruloyl SCoA, trans-feruloyl SCoA], the “Activity, utilisation of trans-p-hydroxycinnamoyl SCoA thioester” value [1] was 0.60 nkat/mg of protein.

`CC(C)(COP(=O)(O)OP(=O)(O)OC[C@H]1O[C@@H](n2cnc3c(N)ncnc32)[C@H](O)[C@@H]1OP(=O)(O)O)[C@@H](O)C(=O)NCCC(=O)NCCSC(=O)/C=C/c1ccc(O)cc1` (relative stereo) [p-Coumaroyl SCoA, trans-4-coumaroyl SCoA] was tested, and the “Activity, utilisation of trans-p-hydroxycinnamoyl SCoA thioester” value [1] was 0.72 nkat/mg of protein.

With `O=C(O)/C=C/c1ccc2c(c1)OCO2` [3,4-methylenedioxy-trans-cinnamate] the “Use as substrate by enzyme activities I, II and III” value (from here on “Use as substrate”) [2] was “poor substrates”.

For `CC(=O)O` [Acetate], the “Relative Growth (%)” value [3, 7] was 47%.

With `O=C(O)/C=C/c1ccc(O)c(O)c1` [Caffeic acid, 3,4-dihydroxy-trans-cinnamate] the activity at 10000 µM [3, 8] was 79%.

With `O=C(O)C=Cc1ccccc1` [Cinnamic acid] the activity at 10000 µM [3, 8] was 0% and the “Use as substrate” value [2] was “poor substrates”.

For `COc1cc(/C=C/C(=O)O)ccc1O` [Ferulic acid, 4-hydroxy-3-methoxy-trans-cinnamate], the activity at 10000 µM [3, 8] was 100%.

`COc1cc(C(O)CC(=O)SCCNC(=O)CCNC(=O)[C@H](O)C(C)(C)COP(=O)(O)OP(=O)(O)OC[C@H]2O[C@@H](n3cnc4c(N)ncnc43)[C@H](O)[C@@H]2OP(=O)(O)O)ccc1O` (stereo partly drawn) [HMPHP SCoA, 4-hydroxy-3-methoxyphenyl-β-hydroxypropionyl SCoA] was tested, and the “Metabolism by cell-free extract” value ([4]; incubated with cell-free extract, absence of NAD+) was “converted rapidly to acetyl SCoA and vanillin, in equimolar proportions”.

For `CO` [Methanol], the activity at 10000 µM ([3]; Pseudomonas fluorescens, 48 h) was 0%.

In the case of `O=C(O)c1ccc(O)c(O)c1` [Protocatechuic acid], the activity at 10000 µM ([3]; Pseudomonas fluorescens, 48 h) is reported as 77%.

For `O=Cc1ccc(O)c(O)c1` [Protocatechuic aldehyde], the “Relative Growth (%)” value [3, 7] was 0%.

Compound `COc1cc(/C=C/C(=O)O)cc(OC)c1O` [Sinapic acid] has an activity at 10000 µM [3, 8] of 0%.

For `COc1cc(C(=O)O)ccc1O` [Vanillic acid], the activity at 10000 µM [3, 8] was 140%.

With `COc1cc(C=O)ccc1O` [Vanillin, 4-hydroxy-3-methoxybenzaldehyde] the activity at 1000 µM ([3]; Pseudomonas fluorescens, vanillin 1 mM on MM Medium, 48 h at 25° C., absorbance at 600 nm) was < 100%, the “Effect on growth of strain AN103” value ([3]; concentrations higher than the low concentrations (<1 mM)) was “growth-inhibitory” and the “Activity as substrate of vanillin:NAD+ oxidoreductase” value [5] was 3.0 nkat/mg of protein.

`O=C(O)/C=C/c1ccc(O)cc1` [p-Coumarate, 4-hydroxy-trans-cinnamate] was tested, and the “Activity, formation of CoASH thioester” value [6] was 0.37 nkat/mg protein and the “Use as substrate” value [2] was “reasonable efficiency”.

With `O=Cc1ccccc1O` [salicylaldehyde] the “Activity as substrate of vanillin:NAD+ oxidoreductase” value [5] was 2.8 nkat/mg.

In the case of `COc1cc(C(=O)SCCNC(=O)CCNC(=O)[C@H](O)C(C)(C)COP(=O)(O)OP(=O)(O)OC[C@H]2O[C@@H](n3cnc4c(N)ncnc43)[C@H](O)[C@@H]2OP(=O)(O)O)ccc1O` [vanilloyl SCoA, 4hydroxy-3-methoxybenzoyl SCoA], the “Metabolism to vanillin by cell-free extracts” value ([4]; in the presence of NADH) is reported as “not to be metabolised to vanillin”.
